What was measured:
Hepatotoxicity [1] = test system: Hepatotoxicity;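 on HepSE Combined Scores: combined hepatic side effect score as listed in the training data of the Drug Induced Liver Injury Prediction System (DILIps)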;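 on HepSE cholelithiasis: hepatic side effect score for cholelithiasis, drawn from the DILIps training data for predicting drug-induced liver injury; call rule not given here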;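 on HepSE elevated liver function tests: hepatic side effect score for raised liver function tests, as recorded in the DILIps training set used for predicting drug-induced liver injury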;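 on HepSE hepatic necrosis: score of hepatic side effects for hepatic necrosis, drawn from the training data of DILIps, a prediction system for drug-induced liver injury; call rule not given here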;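 on HepSE hepatomegaly: hepatic side effect score for hepatomegaly, taken from the training set of the DILIps drug-induced liver injury prediction system; call rule not given here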; on HepSE liver disease: call rule not given here;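 on HepSE liver function tests abnormal: hepatic side effect score taken from the DILIps (drug-induced liver injury prediction system) training data, here covering abnormal liver function test findings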
Hepatotoxicity [2] = test system: Hepatotoxicity; remark: listed apart in the source;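 on HepSE Combined Scores: combined hepatic side effect score as listed in the training data of the Drug Induced Liver Injury Prediction System (DILIps)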;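 on HepSE cholelithiasis: hepatic side effect score for cholelithiasis, drawn from the DILIps training data for predicting drug-induced liver injury; call rule not given here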;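 on HepSE elevated liver function tests: hepatic side effect score for raised liver function tests, as recorded in the DILIps training set used for predicting drug-induced liver injury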;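 on HepSE hepatic necrosis: score of hepatic side effects for hepatic necrosis, drawn from the training data of DILIps, a prediction system for drug-induced liver injury; call rule not given here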; on HepSE liver disease: call rule not given here;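 on HepSE liver function tests abnormal: hepatic side effect score taken from the DILIps (drug-induced liver injury prediction system) training data, here covering abnormal liver function test findings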
Hepatotoxicity [3] = test system: Hepatotoxicity; remark: listed apart in the source;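 on HepSE Combined Scores: combined hepatic side effect score as listed in the training data of the Drug Induced Liver Injury Prediction System (DILIps)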;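 on HepSE cholelithiasis: hepatic side effect score for cholelithiasis, drawn from the DILIps training data for predicting drug-induced liver injury; call rule not given here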;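 on HepSE elevated liver function tests: hepatic side effect score for raised liver function tests, as recorded in the DILIps training set used for predicting drug-induced liver injury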;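 on HepSE hepatic necrosis: score of hepatic side effects for hepatic necrosis, drawn from the training data of DILIps, a prediction system for drug-induced liver injury; call rule not given here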; on HepSE liver disease: call rule not given here;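 on HepSE liver function tests abnormal: hepatic side effect score taken from the DILIps (drug-induced liver injury prediction system) training data, here covering abnormal liver function test findings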
Hepatotoxicity [4] = test system: Hepatotoxicity; remark: listed apart in the source;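 on HepSE Combined Scores: combined hepatic side effect score as listed in the training data of the Drug Induced Liver Injury Prediction System (DILIps)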;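 on HepSE cholelithiasis: hepatic side effect score for cholelithiasis, drawn from the DILIps training data for predicting drug-induced liver injury; call rule not given here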;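 on HepSE elevated liver function tests: hepatic side effect score for raised liver function tests, as recorded in the DILIps training set used for predicting drug-induced liver injury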;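 on HepSE hepatic necrosis: score of hepatic side effects for hepatic necrosis, drawn from the training data of DILIps, a prediction system for drug-induced liver injury; call rule not given here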; on HepSE liver disease: call rule not given here;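 on HepSE liver function tests abnormal: hepatic side effect score taken from the DILIps (drug-induced liver injury prediction system) training data, here covering abnormal liver function test findings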
Hepatotoxicity [5] = test system: Hepatotoxicity; remark: listed apart in the source; on HepSE liver disease: call rule not given here
Hepatotoxicity [6] = test system: Hepatotoxicity; remark: listed apart in the source; on HepSE liver disease: call rule not given here
Hepatotoxicity [7] = test system: Hepatotoxicity; remark: listed apart in the source
Hepatotoxicity [8] = test system: Hepatotoxicity; remark: listed apart in the source
Hepatotoxicity [9] = test system: Hepatotoxicity; remark: listed apart in the source
Hepatotoxicity [10] = test system: Hepatotoxicity; remark: listed apart in the source
Hepatotoxicity [11] = test system: Hepatotoxicity; remark: listed apart in the source
Hepatotoxicity [12] = test system: Hepatotoxicity; remark: listed apart in the source
Hepatotoxicity [13] = test system: Hepatotoxicity; remark: listed apart in the source
Hepatotoxicity [14] = test system: Hepatotoxicity; remark: listed apart in the source

Structure (SMILES)	HepSE_liver function tests abnormal (Hepatotoxicity [1])	HepSE_liver disease (Hepatotoxicity [2])	HepSE_Combined Scores (Hepatotoxicity [3])	HepSE_cholelithiasis (Hepatotoxicity [4])	HepSE_hepatic necrosis (Hepatotoxicity [5])	HepSE_elevated liver function tests (Hepatotoxicity [6])	HepSE_bilirubinemia (Hepatotoxicity [7])	HepSE_hepatomegaly (Hepatotoxicity [8])	HepSE_cholecystitis (Hepatotoxicity [9])	HepSE_cirrhosis (Hepatotoxicity [10])	HepSE_jaundice (Hepatotoxicity [11])	HepSE_hepatic failure (Hepatotoxicity [12])	HepSE_liver fatty (Hepatotoxicity [13])	HepSE_hepatitis (Hepatotoxicity [14])	also measured
C[C@]12CC[C@@H]3c4ccc(OC(=O)N(CCCl)CCCl)cc4CC[C@H]3[C@@H]1CC[C@@H]2O [ESTRAMUSTINE]	0	0	0	0	0	0	0	0	0	0	0	0	0	0	
CC#C[C@]1(O)CC[C@H]2[C@@H]3CCc4cc(O)ccc4[C@H]3CC[C@@]21C [ESTROGEN]	0	0	1	0	0	0	0	0	0	0	1	0	0	0	
C=C(CC)C(=O)c1ccc(OCC(=O)O)c(Cl)c1Cl [ETHACRYNIC ACID]	1	0	2	0	0	0	0	0	0	0	1	0	0	0	
CC[C@@H](CO)NCCN[C@@H](CC)CO [ETHAMBUTOL]	1	0	2	0	0	0	0	0	0	0	0	0	0	1	
CCc1cc(C(N)=S)ccn1 [ETHIONAMIDE]															HepSE_liver function tests abnormal (Hepatotoxicity [1]; Liver): 0; HepSE_liver disease (Hepatotoxicity [2]; Liver): 0; HepSE_Combined Scores (Hepatotoxicity [3]; Liver): 2; HepSE_cholelithiasis (Hepatotoxicity [4]; Liver): 0; HepSE_hepatic necrosis (Hepatotoxicity [5]; Liver): 0; HepSE_elevated liver function tests (Hepatotoxicity [6]; Liver): 0; HepSE_bilirubinemia (Hepatotoxicity [7]; Liver): 0; HepSE_hepatomegaly (Hepatotoxicity [8]; Liver): 0; HepSE_cholecystitis (Hepatotoxicity [9]; Liver): 0; HepSE_cirrhosis (Hepatotoxicity [10]; Liver): 0; HepSE_jaundice (Hepatotoxicity [11]; Liver): 1; HepSE_hepatic failure (Hepatotoxicity [12]; Liver): 0; HepSE_liver fatty (Hepatotoxicity [13]; Liver): 0; HepSE_hepatitis (Hepatotoxicity [14]; Liver): 1
CCC1(C)CC(=O)NC1=O (stereo not drawn) [ETHOSUXIMIDE]	0	0	0	0	0	0	0	0	0	0	0	0	0	0	
CCN1C(=O)NC(c2ccccc2)C1=O (stereo not drawn) [ETHOTOIN]	0	0	0	0	0	0	0	0	0	0	0	0	0	0	
